Converted amounts (≈) assume the structure as drawn.
Experiments:
Streptococcus Aronson [1] = test: Serial dilution test; type: cell-based; details: Streptococcus, 18-20 hours at 37° C., read-out: MIC, S.D.T., Streptococcus Aronson
Protocol: (§1) The inhibitory effect on bacteria and fungi was examined by the serial dilution test and the agar diffusion test (hole-test). As bacteria were used: Staphylococcus aureus SG 511, Streptococcus Aronson, Streptococcus pyogenes At CC 86 68; as fungi: Candida albicans AT CC 10231, Trichophyton mentagrophytes AT CC 9129 and Aspergillus niger.
(§2) 2. Glucose broth: for Sc. Aronson and St. pyogenes Recipe see meat extract broth. After sterilization 1 weight percent of glucose is added as a sterile 50% solution.
(§3) The age of the primary cultures is 24 hours for bacteria and 14 days for fungi. The standardization of the suspension of microorganisms is effected using a photometer according to Eppendorf (test tube .phi.14 mm, filter 546 nm) and a suspension for comparison consisting of barium sulfate, this suspension being created by adition of 3.0 ml of 1% barium chloride solution to 97 ml of 1% sulfuric acid. After the standardization the bacteria were further diluted to a concentration of 1:1000 by means of sodium chloride solution, the fungi were used in an undiluted state.
(§4) 40 mgm of the substance were put into a 10 ml measuring flask and filled up to the mark with the solvent (corresponds to a dilution of 1:250=4000 μg/ml). The further dilution series was standardized with distilled water or the respective solvent and the following substance concentrations were prepared: 1000; 250; 62.5 μg/ml.
(§5) The tubes were filled with 4.9 ml of the corresponding liquid nutrient medium. Then 0.1 ml of the substance dilution prepared above was added to each tube, so that the mentioned final concentrations were present. Finally each tube was inoculated with 0.1 ml of the standardized suspension of microorganisms. Control tests merely using the solvent are to be carried out simultaneously.
(§6) Bacteria were incubated at 37° C. for 18-20 hours and fungi at 27° C. for 7 days.
(§7) The measurement is carried out macroscopically defining the minimal inhibitory concentration (the lowest still microbiostatically effective concentration).

[2] = tested on: Streptococcus pyogenes At CC 86 68; test: Serial dilution test; type: cell-based; details: Streptococcus pyogenes, ATCC8668, 18-20 hours at 37° C., read-out: MIC, S.D.T., Streptococcus pyogenes
Protocol: as §1, §2, §3, §4, §5, §6, §7

[3] = tested on: Staphylococcus aureus SG 511; test: Agar diffusion test (hole-test); type: cell-based; details: SG511, 18-20 hours at 37° C., read-out: MIC, A.D.T., Staphylococcus aureus SG 511
Protocol: as §1
1. Meat extract agar: for St. aureus SG 511
as §3, with “addition” for “adition”, “St. aureus SG 511 was” for “the bacteria were further”, “diluted” for “diluted to a concentration of”, “1:1000 and Sc. pyogenes and Aronson 1:100” for “1:1000”, “solution. The” for “solution, the”
(§8) 40 mgm of the substance were put into a 10 ml measuring flask and filled up to the mark with the solvent (corresponds to a dilution of 1:250=4000 μg/ml).
(§9) The dilutions to the concentrations under test were effected with distilled water or the respective solvent.
(§10) 19 ml of the nutrient medium were filled into sterile Petri dishes of a diameter of 8 cm and dried. Subsequently the agar plates were charged with 4 ml of seed agar. 100 ml of seed agar contain 1.25 ml of the suspension of microorganisms, an agar plate thus containing 0.05 ml of the suspension of microorganisms. After solidification of the agar, 5 holes of a diameter of 5 mm were punched into the plates and filled with 0.05 ml of the correspondingly concentrated substance solution.
(§11) Control tests merely using the solvent are to be carried out simultaneously.
as §6
(§12) The diameter of the area of inhibition in mm was measured after having deducted the diameter of the hole.

[4] = tested on: Staphylococcus aureus SG 511; test: Serial dilution test; type: cell-based; details: Staphylococcus aureus, SG511, 18-20 hours at 37° C., read-out: MIC, S.D.T., Staphylococcus aureus SG 511
Protocol: as §1
1. Meat extract broth: for St. aureus SG 511
as §3, §4, §5, §6, §7

Corynebacterium acnes = test: Serial dilution test for Corynebacterium acnes; type: cell-based; details: for MIC: Cutibacterium acnes, 37° C. for 48 hours, read-out: MIC, S.D.T., Corynebacterium acnes
Protocol: Serial dilution test for Corynebacterium acnes and Pityrosporum ovale Nutrient medium
For Corynebacterium acnes: thioglycolate-broth for Pityrosporum ovale: Littmann's broth, 5 ml per tube.
Suspension of microorganisms in 0.9% sodium chloride solution, standardized using a photometer according to Eppendorf by means of a suspension for comparison consisting of barium sulfate, for Corynebacterium acnes in a dilution of 1:100, for Pityrosporum ovale in an undiluted state. 0.1 ml of the suspensions was used per test tube. Dimethyl sulfoxide served as a solvent for the substances.
The suspension with Corynebacteria acnes was incubated at 37° C. for 48 hours, the suspension of Pityrosporum ovale at 27° C. for 7 days. The reading was effected by macroscopic evaluation of the growth of microorganisms and registration of the minimal inhibitory concentration.

Streptococcus Aronson [5] = test: Agar diffusion test (hole-test); type: cell-based; details: 18-20 hours at 37° C., read-out: MIC, A.D.T., Streptococcus Aronson
Protocol: as §1
(§13) 2. Glucose agar: for Sc. Aronson and St. pyogenes Recipe see meat extract agar. After sterilization 1 weight percent of glucose is added as a sterile 50% solution.
as §3, with “addition” for “adition”, “St. aureus SG 511 was” for “the bacteria were further”, “diluted” for “diluted to a concentration of”, “1:1000 and Sc. pyogenes and Aronson 1:100” for “1:1000”, “solution. The” for “solution, the”
as §8, §9, §10, §11, §6, §12

[6] = tested on: Streptococcus pyogenes At CC 86 68; test: Agar diffusion test (hole-test); type: cell-based; details: ATCC8668, 18-20 hours at 37° C., read-out: MIC, A.D.T., Streptococcus pyogenes
Protocol: as §1, §13
as §3, with “addition” for “adition”, “St. aureus SG 511 was” for “the bacteria were further”, “diluted” for “diluted to a concentration of”, “1:1000 and Sc. pyogenes and Aronson 1:100” for “1:1000”, “solution. The” for “solution, the”
as §8, §9, §10, §11, §6, §12

HeLa-cell culture = test: Inhibition of HeLa cell cultures; type: cell-based; details: Homo sapiens, 72 h, 37° C. for 3 days, 5% carbon dioxide; for IC50: read-out: ED50, HeLa cell culture; for minimal effective concentration: read-out: Minimal inhibitory concentration, HeLa cell culture
Protocol: Measurement of the inhibition of cell cultures
HeLa-cell culture was treated with trypsin and adjusted to a cell number of 150,000 cells/ml of fresh medium. The substance was always dissolved in the same quantity of dimethyl sulfoxide and then further diluted with growth medium. 0.1 ml of the substance-dilutions were added to each well of microtiter plates and then 0.2 ml of cell suspension were added (4 wells per dilution). Several growth controls containing 0.1 ml of growth medium instead of 0.1 ml of substance dilution were put up. After careful mixing, the cultures were incubated at 37° C. for 3 days in a 5% carbon dioxide atmosphere. The reading was effected in comparison with these controls. The results were given as the percentage of the deficiency and degeneration compared to the growth control. […] The statements are referred to μg of substance per ml of total medium.

[7] = biological target: glucose-6-phosphate-dehydrogenase; test: Inhibition of glucose-6-phosphate-dehydrogenase (G6PDH); type: biochemical
Protocol: Measurement of the inhibition of the glucose-6-phosphatedehydrogenase
The equilibrium was observed:
Glucose-6-phosphate+NADP^+ G6-DH gluconic
acid-6-phosphate+NADPH+H^+
(NADP=nicotinamide-adenine-dinycleotide-phosphate, G6P-DH=gluconic acid-6-phosphate-dehydrogenase)
The formation velocity of NADPH is a measure for the enzyme activity; it may be observed by means of the extinction increase at 340, 334 or 366 nm per unit of time.
0.025 ml of glucose-6-phosphate-dehydrogenase (Boehringer Mannheim) were filled up to 10 ml of distilled water (solution I). 100 mgm of nicotinamide-adenine-dinucleotide-phosphate were dissolved in 13 ml of distilled water (solution II). 47.2 mgm of glucose-6-phosphate were dissolved in further 10 ml of distilled water (solution 3). Simultaneously a buffer solution (solution IV) was prepared as follows: 0.28 gm of triethanolamine-hydrochloride and 1.461 gm of ethylene diaminotetraacetic acid-disodium salt were dissolved in 1 liter of distilled water and adjusted to a pH of 7.6 with sodium hydroxide solution. The substance under test was dissolved in dimethyl formamide or ethanol (solution V). Tested concentrations: 50; 25; 12.5; 6.25; 3.125; 1.56 and 0.78 μg/ml.
0.1 ml of solution I, 0.1 ml of solution II, 2.67 ml of solution IV and 0.03 ml of solution V were mixed and kept at 25° C. for 5 minutes. Then 0.1 ml of solution III was added, mixed and the alteration of extinction was determined spectrophotometrically at 366 nm for 3 minutes.
0.1 ml of solution I, 0.1 ml of solution II, 2.67 ml of solution IV and 0.03 ml of solution V were mixed and kept at 37° C. for 60 minutes. Then 0.1 ml of solution III was added, mixed and the alteration of extinction was measured spectrophotometrically at 366 nm for 3 minutes.
The inhibitory values were calculated from the average values of three measurements (alteration of extinction per minute) compared with controls, which received the pure solvent as the inhibitory solution. Then the ED50 was calculated according to Reed and Muench from the inhibitory values for the various concentrations.

Row | Structure (SMILES) | MIC (Streptococcus Aronson [1]) | MIC [2] | MIC [3] | MIC [4] | MIC (Corynebacterium acnes) | MIC (Streptococcus Aronson [5]) | MIC [6] | IC50 (HeLa-cell culture) | G6PDH-inhibition Ed50, Immediate Inhibition ([7]; 25° C. for 5 minutes preincubation) | G6PDH-inhibition Ed50, Inhibition of Incubation ([7]; 37° C. for 60 minutes preincubation) | Concentration with reduced growth (value in brackets), S.D.T., Corynebacterium acnes (Corynebacterium acnes; reduced growth at this concentration) | minimal effective concentration (HeLa-cell culture)
1 | CCc1cc(C(=O)C(F)(F)F)c(O)c(Cc2c(O)c(CC)cc(C(=O)C(F)(F)F)c2O)c1O [R, Methylene-bis-(2,6-dihydroxy-3-ethyl-5-trifluoro-acetyl)-benzene] | 0.31 µg/mL (≈ 0.645 µM) | 0.005 µg/mL (≈ 0.0104 µM) | ≤ 15.6 µg/mL | 0.08 µg/mL (≈ 0.167 µM) | 0.005 µg/mL (≈ 0.0104 µM) | ≤ 15.6 µg/mL | ≤ 15.6 µg/mL | – | – | – | – | –
2 | Cc1c(O)c(Cc2cc(C(=O)C(F)(F)F)c(O)c(C)c2O)cc(C(=O)C(F)(F)F)c1O [S, Methylene-bis-(2,4-dihydroxy-3-methyl-5-trifluoro-acetyl)-benzene] | 1.25 µg/mL (≈ 2.76 µM) | 1.25 µg/mL (≈ 2.76 µM) | ≤ 15.6 µg/mL | 1.25 µg/mL (≈ 2.76 µM) | 0.31 µg/mL (≈ 0.685 µM) | ≤ 15.6 µg/mL | ≤ 15.6 µg/mL | 3.8 µg/mL (≈ 8.4 µM) | – | – | – | ≤ 0.78 µg/mL

Further lines, with some results ahead:

Row | MIC (Streptococcus Aronson [1]) | MIC [2] | MIC [3] | MIC [4] | MIC (Corynebacterium acnes) | MIC (Streptococcus Aronson [5]) | MIC [6] | IC50 (HeLa-cell culture) | G6PDH-inhibition Ed50, Immediate Inhibition ([7]; 25° C. for 5 minutes preincubation) | G6PDH-inhibition Ed50, Inhibition of Incubation ([7]; 37° C. for 60 minutes preincubation) | Structure (SMILES) | Concentration with reduced growth (value in brackets), S.D.T., Corynebacterium acnes (Corynebacterium acnes; reduced growth at this concentration) | minimal effective concentration (HeLa-cell culture)
3 | 0.31 µg/mL (≈ 1.03 µM) | 0.08 µg/mL (≈ 0.265 µM) | ≤ 15.6 µg/mL | 0.31 µg/mL (≈ 1.03 µM) | 1.25 µg/mL (≈ 4.14 µM) | ≤ 15.6 µg/mL | ≤ 15.6 µg/mL | – | – | – | O=C(c1ccc(O)c(C2CCCCCC2)c1O)C(F)(F)F [O, 2,4-Dihydroxy-3-cycloheptyl-trifluoroacetophenone] | 0.31 µg/mL | –
4 | 1.25 µg/mL (≈ 4.56 µM) | 0.31 µg/mL (≈ 1.13 µM) | ≤ 15.6 µg/mL | 1.25 µg/mL (≈ 4.56 µM) | 0.31 µg/mL (≈ 1.13 µM) | ≤ 15.6 µg/mL | 62.5 µg/mL (≈ 228 µM) | 5.32 µg/mL (≈ 19.4 µM) | – | – | O=C(c1ccc(O)c(C2CCCC2)c1O)C(F)(F)F [N, 2,4-Dihydroxy-3-cyclopentyl-trifluoroacetophenone] | – | 3.13 µg/mL
5 | – | – | – | – | – | – | – | – | 0.58 µg/mL | 0.13 µg/mL | CC(C)c1c(O)c(Cc2cc(C(=O)C(F)(F)F)c(O)c(C(C)C)c2O)cc(C(=O)C(F)(F)F)c1O [Z, Methylene-bis-(2,4-dihydroxy-3-isopropyl-5-trifluoro-acetyl)-benzene] | – | –

Source: patent US4225619A, “Substituted fluoracylresorcinols” (Boehringer Ingelheim GmBH, priority 1976, dated 1980)
